According to patent US6517812B1, “Inhibition of psychostimulant-induced and nicotine-induced craving” (The General Hospital Corporation, priority 1997, dated 2003):

How the values were obtained:
Type in all cases: in vivo
[1] = system: cocaine-dependent volunteers; assay: Physiological monitoring (HR, MBP, ETCO2, ECG) after double-blind IV cocaine infusion; details: human
Procedure: Subjects were admitted to the MGH GCRC for the screening procedures; those meeting all criteria were boarded overnight on the unit in preparation for imaging the following day. The following morning the subject had bilateral intravenous catheters placed (right forearm for cocaine or saline infusion, left forearm for serial venous blood sampling for quantitative cocaine levels). Scanning was performed between 11AM and 3PM during which the subject was in the scanner for two periods of time each lasting from 45 to 90 minutes. During each scanning period, one infusion was given, either cocaine (0.6 mg/kg, maximum dose 40 mg) or saline (both in a volume of 10 cc given over 30 seconds IV) in a randomized, double blind order. Five different scans were performed during each period. The infusion itself was made 5 minutes into an 18 minute long blood oxygen level dependent (BOLD) scan. The BOLD infusion scan was bracketed by flow-sensitive alternating inversion recovery (FAIR) and visual stimulation BOLD scans (the data from these scans were used to delineate the global vs. regional signal changes from cocaine). The time interval between functional scans within a period was kept to a minimum. The entire sequence of 5 functional scans was completed within 45-60 minutes. The subject was removed from the scanner for a 15-30 minute rest and then was returned to magnet and the sequence was repeated for the second infusion. A minimum of two hours had to pass between each double-blind infusion.
Physiologic monitoring was conducted using an In Vivo OmniTrak 3100 patient monitoring system (Orlando, Fla.) modified to permit on-line computer acquisition of physiologic measurements. Each subject was fitted with chest leads to record the electrocardiogram (ECG) and to measure heart rate (HR), a nasal cannula to measure respiratory rate and end-expiratory carbon dioxide (ETCO2), and a blood pressure cuff to measure non-invasively systemic mean blood pressure (MBP). The temporal resolution of the system for sampling blood pressure was once every two minutes.
Precautions taken to ensure safe conduct of the study included use of ACLS trained personnel, frequent running of mock codes with clocked performance of tasks and strict definition of individual tasks, and presence of a cardiologist at the time of all infusions whose sole responsibility was to monitor subject safety. Before and after completion of both infusions, subjects underwent a 12-lead ECG to determine the absence of any interval change from the experiments. Because of magnetohydrodynamic effects on the ECG tracing, a baseline rhythm strip was obtained prior to each drug infusion and all subsequent tracings were compared to that one.
Physiological Data: The data analysis and graphing program IGOR (WaveMetrics, Inc.) was used to analyze the data. Data were first analyzed by a 2 way ANOVA with drug treatment (saline, cocaine) and time of measurement as factors. When significant F values were obtained for one of the physiologic measures, individual time points were compared by post-hoc t-tests to determine if (and at what times) the change from baseline was significant. The Bonferroni correction for multiple comparisons was used; the criteria for significance at the 0.05 level was p<0.007.

[2] = system: rat frontal cortex; assay: Laser Doppler-flowmetry (LDF) of regional cortical blood flow (CBF) in rat
Procedure: All procedures were carried out in accordance with NIH guidelines. Male Harlan Sprague-Dawley rats (225-300 gm) were anesthetized briefly with 1.5% halothane in oxygen for insertion of left femoral arterial and venous cannulae and placement of tracheostomy for mechanical ventilation (using a 16 gauge intravenous catheter, Inste-W, Becton Dickinson, Sandy, Utah). All wounds were infiltrated with 1% lidocaine before incision. Following surgery, the inspired halothane concentration was reduced to 0.7% and rats were paralyzed with 2 mg/kg intravenous pancuronium, followed by a continuous intravenous infusion of pancuronium at 2 mg/kg/hr. Pancuronium was dissolved in normal saline administered at 5 ml/kg/hr. Rats were mechanically ventilated (in a small animal volume controlled ventilator, Harvard Apparatus, Inc., South Natick, Mass.) with a 80/20 air/oxygen mixture, an inspiratory to expiratory ratio of 1:1, and an initial tidal volume of 3.0 ml at a rate of 40 breaths per minute. Ventilation parameters were adjusted to maintain normal arterial blood gases (pH=7.40±0.01, PaCO2=40±2, PaO2=145±10). Arterial blood samples (150 μl) withdrawn from cannula were analyzed for arterial partial pressures of oxygen, carbon dioxide, and pH (Ciba-Coming Model 1304) before administration of drugs, and at the end of each experiment before sacrifice, to ensure animal stability. Arterial blood pressure and rectal temperature were monitored throughout the experiment. […] Rats torsos were wrapped in two heating blankets (Gaymar, Orchid Park, N.Y.) circulating warm water to maintain core temperature at 37-38° C. To minimize MRI motion artifact, rats were placed into a custom plastic cradle attached to a head frame machined from delrin plastic (David Kopf Instruments, Fremont, Calif.); heads were fixed with plastic screws inserted into the ear canals and a bar inserted under the front incisors. Rat heads were shaved and covered with gel toothpaste to reduce magnetic susceptibility artifacts arising from air-tissue interfaces; ear canals and oropharynx were also filled with toothpaste. A surface coil was secured over the dorsal surface of the head before positioning the animal in the magnet center. Cocaine (RBI, Natick, Mass.), SCH-23390 (RBI, Natick, Mass.), and cocaine methiodide (NIDA, Bethesda, Md.) were dissolved in normal saline and administered in a 0.5 ml volume at a rate of 1 ml/min via the femoral vein. Sixty minutes passed before injections of cocaine were repeated.
Regional cortical blood flow was determined by LDF (Perimed, PF2B, Stockholm, Sweden) as described previously (Ayata, et al., 1996, J. Cereb. Blood Flow Metab., 16:539-541). Rats (n=8) were prepared exactly as for dynamic MR studies and positioned in a standard stereotaxic head frame. With the scalp incised and retracted, two holes (1-2 mm in diameter) were drilled through the skull 2 mm lateral to midline; one hole was 2 mm anterior to bregma overlying frontal cortex, and the other was 8 mm posterior to bregma to examine occipital cortex. The flow probe was positioned directly upon exposed dura mater in a puddle of mineral oil. […] All data were collected, stored, and analyzed using MacLab/8 data acquisition and analysis system (ADInstruments, Mountain View, Calif.). Arterial pressure was continuously monitored and the data stored; heart rate was calculated from arterial pressure pulses by the data acquisition software. […]

[3] = system: rat brain regions; assay: CBV-weighted fMRI with MION contrast in rat after IV cocaine
[4] = rat frontal cortex, cocaine 0.5 mg/kg IV
[5] = rat frontal cortex, cocaine 0.5 mg/kg IV, post infusion

With `COC(=O)[C@H]1[C@@H](OC(=O)c2ccccc2)C[C@@H]2CC[C@H]1N2C` [cocaine] the “cardiac rhythm (ECG)” value ([1]; all subjects throughout the study) was “Normal sinus rhythm”, the “time for HR, MBP and ETCO2 to return to baseline” value ([1]; cocaine 0.6 mg/kg IV) was ≤ 2 h and the “heart rate (HR)” value ([1]; cocaine 0.6 mg/kg IV over 30 seconds, n=17, 2 minutes post-infusion) was 79±16 bpm. The “mean blood pressure (MBP)” value ([1]; cocaine 0.6 mg/kg IV, 2 minutes post-infusion) was 101±12 torr, the “mean blood pressure (MBP)” value ([1]; cocaine 0.6 mg/kg IV, 5 minutes) was 111±15 torr and the “end-tidal carbon dioxide (ETCO2)” value ([1]; cocaine 0.6 mg/kg IV, by 10 minutes) was 36±4 mm Hg. For the same molecule, the “heart rate (HR)” value ([1]; cocaine 0.6 mg/kg IV, n=17, 5 minutes post infusion) was 82±12 bpm, the “heart rate (HR)” value ([1]; cocaine 0.6 mg/kg IV, n=17, 10 minutes post infusion) was 93±14 bpm and the “maximum increase of cortical CBF over baseline” value [2, 4] was 41%. For the same molecule, the “time to peak CBF” value [2, 4] was “approximately 3.5 minutes”, the “time of return of CBF to baseline” value [2, 5] was ≤ 25 min and the “maximum elevation of frontal cortex blood flow” value ([2]; rat, LDF, after 1 mg/kg cocaine) was 35±3. For the same molecule, the “maximum increase of cortical CBV over baseline” value [3, 4] was 32%, the “time to peak CBV” value [3, 4] was “approximately 3.5 minutes” and the “time of return of CBV to baseline” value [3, 5] was ≤ 25 min. For the same molecule, the “time to maximum CBV change, all cortical and subcortical regions” value ([3]; rat, after initiation of 0.5 mg/kg cocaine infusion) was 3 to 6 min, the “increase in CBV at peak, agranular lateral frontal neocortex” value ([3]; rat, cocaine 0.5 mg/kg IV) was ~30% and the “increase in CBV at peak, agranular medial frontal neocortex” value ([3]; rat, cocaine 0.5 mg/kg IV) was “approximately 40%”. For the same molecule, the “average CBV response of four subcortical regions relative to five frontal and parietal cortical regions” value ([3]; rat, cocaine 0.5 mg/kg IV, p<0.005) was 45%.
